Test results published in ChEMBL document CHEMBL1141099, “Discovery of N-(2,6-dimethylphenyl)-substituted semicarbazones as anticonvulsants: hybrid pharmacophore-based design” (2005).

Columns and labels:
[1] = system: Mus musculus; test: Minimum dose required for anticonvulsant activity when given i.p., at 4 hr in mice upon maximal electroshock seizure; format: functional
[2] = system: Rattus norvegicus; test: Number of rats protected at a dose of 30 mg/Kg when given oral at 2 hr upon maximal electroshock seizure; Total number of rats = 4; format: functional
[3] = system: Mus musculus; test: Minimum dose required for anticonvulsant activity when given i.p., at 0.5 hr in mice upon maximal electroshock seizure; format: functional
[4] = target: 4-aminobutyrate aminotransferase, mitochondrial (Rattus norvegicus) (UniProt P50554); test: In vitro percentage inhibition activity against GABA-T enzyme at a concentration of 2.5 uM after 3 h
4-aminobutyrate aminotransferase, mitochondrial (Rattus norvegicus), sequence (P50554 28-500 limits assumed): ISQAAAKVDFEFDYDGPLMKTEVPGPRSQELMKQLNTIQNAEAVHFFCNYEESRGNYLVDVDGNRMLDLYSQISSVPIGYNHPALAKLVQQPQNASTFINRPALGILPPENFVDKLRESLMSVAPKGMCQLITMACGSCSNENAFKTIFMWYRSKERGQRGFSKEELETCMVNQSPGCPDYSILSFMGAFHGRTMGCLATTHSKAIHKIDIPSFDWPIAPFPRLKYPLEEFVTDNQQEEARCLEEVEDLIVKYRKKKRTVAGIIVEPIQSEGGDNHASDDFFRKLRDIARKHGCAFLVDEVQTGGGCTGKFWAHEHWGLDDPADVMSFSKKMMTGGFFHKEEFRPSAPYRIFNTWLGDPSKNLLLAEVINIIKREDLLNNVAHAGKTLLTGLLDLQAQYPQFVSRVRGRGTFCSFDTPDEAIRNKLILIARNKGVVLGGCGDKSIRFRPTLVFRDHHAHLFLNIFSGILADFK

[5] = system: Rattus norvegicus; test: Effect on GABA level in rat whole brain concentration after 2 hr post-treatment at a dose of 100 mg/Kg when given i.p.; Control 48.4; format: functional
[6] = target: 4-aminobutyrate aminotransferase, mitochondrial (Rattus norvegicus) (UniProt P50554); test: In vitro percentage inhibition activity against GABA-T enzyme at a concentration of 2.5 uM after 6 h
[7] = system: Rattus norvegicus; test: Number of rats protected at a dose of 30 mg/Kg when given oral at 0.5 hr upon maximal electroshock seizure; Total number of rats = 4; format: functional
[8] = species on record: Rattus norvegicus; test: Ex vitro percentage inhibition activity against GABA-T enzyme at a concentration of 1.25 uM after 4.5 h; format: functional
[9] = system: Mus musculus; test: Post treatment activity score for CNS study using a actophotometer at a dose of 100 mg/Kg after 0.5 hr when given i.p., in mice (No. of animals 6); Control (24h before) 260
[10] = system: Mus musculus; test: Post treatment immobility time for CNS study using Porsolt's swimpool test at a dose of 100 mg/Kg after 1 h when given i.p., in mice (No. of animals 6); Control (24h before) 164
[11] = system: Rattus norvegicus; test: Number of rats protected at a dose of 30 mg/Kg when given oral at 4 hr upon maximal electroshock seizure; Total number of rats = 4; format: functional
[12] = target: 4-aminobutyrate aminotransferase, mitochondrial (Rattus norvegicus) (UniProt P50554); test: In vitro percentage inhibition activity against GABA-T enzyme at a concentration of 2.5 uM after 4.5 h
[13] = system: Rattus norvegicus; test: Number of rats protected at a dose of 30 mg/Kg when given oral at 0.25 hr upon maximal electroshock seizure; Total number of rats = 4; format: functional
[14] = system: Rattus norvegicus; test: Toxic dose observed for anticonvulsant activity when given i.p., at 0.25 hr in rat upon neurotoxicity seizure; format: functional; conditions: ip
[15] = species on record: Rattus norvegicus; test: Protective index between effective dose and toxic dose in rat; format: functional
[16] = system: Rattus norvegicus; test: Number of rats protected at a dose of 30 mg/Kg when given oral at 1 hr upon maximal electroshock seizure; Total number of rats = 4; format: functional
[17] = system: Mus musculus; test: Post treatment activity score for CNS study using a actophotometer at a dose of 100 mg/Kg after 1 hr when given i.p., in mice (No. of animals 6); Control (24h before) 260
[18] = system: Mus musculus; test: Minimum dose required for anticonvulsant activity when given i.p., at 2 hr in mice upon subcutaneous strychnine seizure; format: functional
[19] = system: Mus musculus; test: Minimum dose required for anticonvulsant activity when given i.p., at 0.5 hr in mice upon subcutaneous strychnine seizure; format: functional
[20] = system: Mus musculus; test: Minimum dose required for anticonvulsant activity when given i.p., at 0.5 hr in mice upon subcutaneous pentylenetetrazole seizure; format: functional
[21] = system: Mus musculus; test: Mean sleeping time evaluated for CNS study using the pentobarbital-induced narcosis model at a dose of 100 mg/Kg when given i.p., in mice (No. of animals 6)
[22] = system: Rattus norvegicus; test: Effect on GABA level in rat whole brain concentration after 7 days post-treatment at a dose of 30 mg/Kg when given orally; Control 50.5; format: functional
[23] = species on record: Rattus norvegicus; test: Ex vitro percentage inhibition activity against GABA-T enzyme at a concentration of 1.25 uM after 3 h; format: functional
[24] = species on record: Rattus norvegicus; test: Ex vitro percentage inhibition activity against GABA-T enzyme at a concentration of 1.25 uM after 6 h; format: functional
[25] = system: Rattus norvegicus; test: Effective dose required for anticonvulsant activity when given i.p., at 0.25 hr in rat upon maximal electroshock seizure; format: functional; conditions: ip
[26] = system: Rattus norvegicus; test: Enzymatic activity to assess the increase in level of SGPT at a dose of 30 mg/Kg for 14 days when given p.o., in 6 rats; Control 45.0; format: functional
[27] = system: Mus musculus; test: Minimum dose required for anticonvulsant activity when given i.p., at 0.5 hr in mice upon neurotoxicity seizure using rotarod test; format: functional
[28] = system: Mus musculus; test: Post treatment activity score for CNS study using a actophotometer at a dose of 100 mg/Kg after 1 hr when given i.p., in mice (No. of animals 6); Control (24h before) 258
[29] = system: Mus musculus; test: Minimum dose required for anticonvulsant activity when given i.p., in mice upon neurotoxicity seizure using rotarod test
[30] = system: Rattus norvegicus; test: Enzymatic activity to assess the increase in level of SGOT at a dose of 30 mg/Kg for 14 days when given p.o., in 6 rats; Control 73.1; format: functional
[31] = system: Rattus norvegicus; test: Effective dose required for anticonvulsant activity when given orally at 4 h in rat upon maximal electroshock seizure; format: functional; conditions: po
[32] = system: Mus musculus; test: Post treatment activity score for CNS study using a actophotometer at a dose of 100 mg/Kg after 0.5 hr when given i.p., in mice (No. of animals 6); Control (24h before) 258
[33] = system: Rattus norvegicus; test: Toxic dose observed for anticonvulsant activity when given orally at 4 h in rat upon neurotoxicity seizure; format: functional; conditions: po
[34] = system: Mus musculus; test: Post treatment immobility time for CNS study using Porsolt's swimpool test at a dose of 100 mg/Kg after 1 hr when given i.p., in mice (No. of animals 6); Control (24h before) 184

`C/C(=N\NC(=O)Nc1c(C)cccc1C)c1ccc(O)cc1` showed an MES [1] of 300 mg/kg, an Activity [2] of 3 and an MES [3] of 100 mg/kg. The inhibition [4] was 0%, the Activity [5] was 81.1 ug/100mg of tissue and the inhibition [6] was 55%. It also gave an Activity [7] of 2, an Inhibition [8] of 25% and an Activity [9] of 205. It also gave an Activity [10] of 198, an Activity [11] of 4 and an inhibition [12] of 0%. The Activity [13] was 1, the TD50 [14] was > 68 mg/kg and the PI [15] was >1.6. For the same compound, the Activity [16] was 4, the Activity [17] was 198 and the STY seizure [18] was 100 mg/kg. It also gave an STY seizure [19] of 30 mg/kg, a PTZ seizure [20] of 300 mg/kg and a Time [21] of 108 min. For the same compound, the Activity [22] was 93.6 ug/100mg of tissue, the Inhibition [23] was 0% and the Inhibition [24] was 60%. It also gave an ED50 [25] of 41.6 mg/kg.
Compound `C/C(=N\NC(=O)Nc1c(C)cccc1C)c1ccc(N)cc1` has an SGPT activity [26] of 44.6 units/mL, an NT [27] of 300 mg/kg and an MES [1] of 300 mg/kg. The Activity [2] was 2, the Activity [28] was 187 and the MES [3] was 100 mg/kg. It also gave an Activity [7] of 3, an NT [29] of 300 mg/kg and an Activity [11] of 4. The Activity [13] was 1, the SGOT activity [30] was 71.3 units/mL and the PI [15] was >15.9. It also gave an Activity [16] of 4, an STY seizure [18] of 100 mg/kg and an STY seizure [19] of 30 mg/kg. It also gave an ED50 [31] of 29.1 mg/kg, a PTZ seizure [20] of 300 mg/kg and an Activity [32] of 202. For the same compound, the TD50 [33] was > 464 mg/kg and the Activity [34] was 204.
